Columns and labels:
[1] = system: Monographella nivalis (Microdochium nivale); assay: Fungicidal activity against Monographella nivalis (Microdochium nivale) / liquid culture (foot rot cereals); type: cell-based; details: 4-5 days after application, read-out: disease control (inhibition of growth, photometrically)
Procedure: (§1) Fungicidal Activity Against Monographella nivalis (Microdochium nivale)/Liquid Culture (Foot Rot Cereals) Conidia of the fungus from cryogenic storage were directly mixed into nutrient broth (PDB potato dextrose broth). After placing a (DMSO) solution of test compound into a microtiter plate (96-well format), the nutrient broth containing the fungal spores was added. The test plates were incubated at 24° C. and the inhibition of growth was determined photometrically 4-5 days after application.

[2] = system: Blumeria graminis f. Sp. tritici (Erysiphe graminis f. sp. tritici); assay: Fungicidal activity against Blumeria graminis f. sp. tritici / wheat / leaf disc preventative (powdery mildew on wheat); type: in vivo; details: foliar, wheat leaf segments, inoculated 1 day after application, compared to untreated, read-out: disease control
Procedure: Fungicidal Activity Against Blumeria graminis f. Sp. tritici (Erysiphe graminis f. sp. tritici)/Wheat/Leaf Disc Preventative (Powdery Mildew on Wheat)
Wheat leaf segments cv. Kanzler were placed on agar in a multiwell plate (24-well format) and sprayed with the formulated test compound diluted in water. The leaf disks were inoculated by shaking powdery mildew infected plants above the test plates 1 day after application. The inoculated leaf disks were incubated at 20° C. and 60% rh under a light regime of 24 h darkness followed by 12 h light/12 h darkness in a climate chamber and the activity of a compound was assessed as percent disease control compared to untreated when an appropriate level of disease damage appears on untreated check leaf segments (6-8 days after application).

[3] = system: Mycosphaerella arachidis (Cercospora arachidicola); assay: Fungicidal activity against Mycosphaerella arachidis (Cercospora arachidicola) / liquid culture (early leaf spot); type: cell-based; details: 4-5 days after application, read-out: disease control (inhibition of growth, photometrically)
Procedure: as §1, with “Mycosphaerella arachidis (Cercospora arachidicola)/Liquid” for “Monographella nivalis (Microdochium nivale)/Liquid”, “(Early Leaf Spot)” for “(Foot Rot Cereals)”

Pyrenophora teres = assay: Fungicidal activity against Pyrenophora teres / barley / leaf disc preventative (net blotch); type: in vivo; details: foliar, barley leaf segments, inoculated 2 days after application, compared to untreated, read-out: disease control
Procedure: Fungicidal Activity Against Pyrenophora teres/Barley/Leaf Disc Preventative (Net Blotch) Barley leaf segments cv. Hasso were placed on agar in a multiwell plate (24-well format) and sprayed with the formulated test compound diluted in water. The leaf segments were inoculated with a spore suspension of the fungus 2 days after application. The inoculated leaf segments were incubated at 20° C. and 65% rh under a light regime of 12 h light/12 h darkness in a climate cabinet and the activity of a compound was assessed as disease control compared to untreated when an appropriate level of disease damage appears in untreated check leaf segments (5-7 days after application).

[4] = system: Botryotinia fuckeliana (Botrytis cinerea); assay: Fungicidal activity against Botryotinia fuckeliana (Botrytis cinerea) / liquid culture (gray mould); type: cell-based; details: 3-4 days after application, read-out: disease control (inhibition of growth, photometrically)
Procedure: as §1, with “Botryotinia fuckeliana (Botrytis cinerea)/Liquid” for “Monographella nivalis (Microdochium nivale)/Liquid”, “(Gray Mould)” for “(Foot Rot Cereals)”, “(Vogels” for “(PDB potato dextrose”, “3-4” for “4-5”

Gaeumannomyces graminis = assay: Fungicidal activity against Gaeumannomyces graminis / liquid culture (take-all of cereals); type: cell-based; details: 4-5 days after application, read-out: disease control (inhibition of growth, photometrically)
Procedure: as §1, with “Against Gaeumannomyces graminis/Liquid” for “Against Monographella nivalis (Microdochium nivale)/Liquid”, “Culture (Take-all of” for “Culture (Foot Rot”, “Cereals) Mycelial fragments” for “Cereals) Conidia”, “spores iss” for “spores was”

[5] = system: Glomerella lagenarium (Colletotrichum lagenarium); assay: Fungicidal activity against Glomerella lagenarium (Colletotrichum lagenarium) / liquid culture (anthracnose); type: cell-based; details: Colletotrichum orbiculare, 3-4 days after application, read-out: disease control (inhibition of growth, photometrically)
Procedure: as §1, with “Glomerella lagenarium (Colletotrichum lagenarium)/Liquid” for “Monographella nivalis (Microdochium nivale)/Liquid”, “(Anthracnose)” for “(Foot Rot Cereals)”, “measured” for “determined”, “3-4” for “4-5”

[6] = system: Puccinia recondita f. sp. tritici; assay: Fungicidal activity against Puccinia recondita f. sp. tritici / wheat / leaf disc preventative (brown rust); type: in vivo; details: foliar, wheat leaf segments, inoculated 1 day after application, compared to untreated, read-out: disease control
Procedure: Fungicidal Activity Against Puccinia recondita f. sp. tritici/Wheat/Leaf Disc Preventative (Brown Rust) Wheat leaf segments cv. Kanzler were placed on agar in multiwell plates (24-well format) and sprayed with the formulated test compound diluted in water. The leaf disks were inoculated with a spore suspension of the fungus 1 day after application. The inoculated leaf segments were incubated at 19° C. and 75% rh under a light regime of 12 h light/12 h darkness in a climate cabinet and the activity of a compound was assessed as percent disease control compared to untreated when an appropriate level of disease damage appears in untreated check leaf segments (7-9 days after application).

[7] = system: Phaeosphaeria nodorum (Septoria nodorum); assay: Fungicidal activity against Phaeosphaeria nodorum (Septoria nodorum) / wheat / leaf disc preventative (glume blotch); type: in vivo; details: Parastagonospora nodorum, foliar, wheat leaf segments, inoculated 2 days after application, compared to untreated, read-out: disease control
Procedure: Fungicidal Activity Against Phaeosphaeria nodorum (Septoria nodorum)/Wheat/Leaf Disc Preventative (Glume Blotch) Wheat leaf segments cv. Kanzler were placed on agar in a multiwell plate (24-well format) and sprayed with the formulated test compound diluted in water. The leaf disks were inoculated with a spore suspension of the fungus 2 days after application. The inoculated test leaf disks were incubated at 20° C. and 75% rh under a light regime of 12 h light/12 h darkness in a climate cabinet and the activity of a compound was assessed as percent disease control compared to untreated when an appropriate level of disease damage appears in untreated check leaf disks (5-7 days after application).

[8] = system: Mycosphaerella graminicola (Septoria tritici); assay: Fungicidal activity against Mycosphaerella graminicola (Septoria tritici) / liquid culture (Septoria blotch); type: cell-based; details: Zymoseptoria tritici, 4-5 days after application, read-out: disease control (inhibition of growth, photometrically)
Procedure: as §1, with “Mycosphaerella graminicola (Septoria tritici)/Liquid” for “Monographella nivalis (Microdochium nivale)/Liquid”, “(Septoria Blotch)” for “(Foot Rot Cereals)”

[9] = system: Thanatephorus cucumeris (Rhizoctonia solani); assay: Fungicidal activity against Thanatephorus cucumeris (Rhizoctonia solani) / liquid culture (foot rot, damping-off); type: cell-based; details: 3-4 days after application, read-out: disease control (inhibition of growth, photometrically)
Procedure: Fungicidal Activity Against Thanatephorus cucumeris (Rhizoctonia solani)/Liquid Culture (Foot Rot, Damping-Off) Mycelia fragments of a newly grown liquid culture of the fungus were directly mixed into nutrient broth (PDB potato dextrose broth). After placing a (DMSO) solution of the test compounds into a microtiter plate (96-well format), the nutrient broth containing the fungal material was added. The test plates were incubated at 24° C. and the inhibition of growth was determined photometrically 3-4 days after application.

N#Cc1cccc(Cc2cccc(-c3ncc4c(n3)CCOC4)n2)c1 [Compound 8]
melting point: 206 to 207 °C

CO/N=C1\CCCc2nc(-c3cccc(Cc4ccccc4)n3)ncc21 [Compound 9]
inhibition at 200 ppm [1]: ≥ 80%
pest or weed control at 200 ppm [2]: ≥ 80%
inhibition at 200 ppm [3]: ≥ 80%
pest or weed control at 200 ppm (Pyrenophora teres): ≥ 80%
inhibition at 200 ppm [4]: ≥ 80%
melting point: 213 to 215 °C
inhibition at 200 ppm (Gaeumannomyces graminis): ≥ 80%
inhibition at 200 ppm [5]: ≥ 80%
pest or weed control at 200 ppm [6]: ≥ 80%
pest or weed control at 200 ppm [7]: ≥ 80%

CO/N=C1\CC(C)(C)Cc2nc(-c3cccc(Cc4ccccc4OC)n3)ncc21 [Compound 10]
melting point: 239 to 241 °C

CC1(C)CCc2cnc(-c3cccc(Cc4ccc(Cl)cc4)n3)nc2C1 [Compound 12]
inhibition at 200 ppm [3]: ≥ 80%
inhibition at 200 ppm [4]: ≥ 80%
melting point: 183 to 184 °C

CC1(C)CCc2cnc(-c3cccc(Cc4ccccc4Cl)n3)nc2C1 [Compound 13]
inhibition at 200 ppm [1]: ≥ 80%
inhibition at 200 ppm [8]: ≥ 80%
inhibition at 200 ppm [3]: ≥ 80%
inhibition at 200 ppm [4]: ≥ 80%
melting point: 272 to 273 °C
inhibition at 200 ppm [5]: ≥ 80%
pest or weed control at 200 ppm [7]: ≥ 80%
inhibition at 200 ppm [9]: ≥ 80%

COc1ccccc1Cc1cccc(-c2ncc3c(n2)CC(C)(C)CC3)n1 [Compound 14, 2-[6-(2-methoxybenzyl)-pyridin-2-yl]-7,7-dimethyl-5,6,7,8-tetrahydroquinazoline]
inhibition at 200 ppm [1]: ≥ 80%
inhibition at 200 ppm [8]: ≥ 80%
inhibition at 200 ppm [3]: ≥ 80%
pest or weed control at 200 ppm (Pyrenophora teres): ≥ 80%
inhibition at 200 ppm [4]: ≥ 80%
melting point: 251 to 252 °C
inhibition at 200 ppm (Gaeumannomyces graminis): ≥ 80%
inhibition at 200 ppm [5]: ≥ 80%
inhibition at 200 ppm [9]: ≥ 80%

Cc1ccccc1Cc1cccc(-c2ncc3c(n2)CC(C)(C)CC3)n1 [Compound 15]
inhibition at 200 ppm [1]: ≥ 80%
inhibition at 200 ppm [8]: ≥ 80%
inhibition at 200 ppm [3]: ≥ 80%
pest or weed control at 200 ppm (Pyrenophora teres): ≥ 80%
inhibition at 200 ppm [4]: ≥ 80%
melting point: 259 to 260 °C
inhibition at 200 ppm [5]: ≥ 80%
pest or weed control at 200 ppm [7]: ≥ 80%
inhibition at 200 ppm [9]: ≥ 80%

CC1(C)CCc2cnc(-c3cccc(Cc4cccc(Cl)c4)n3)nc2C1 [Compound 16]
inhibition at 200 ppm [1]: ≥ 80%
inhibition at 200 ppm [8]: ≥ 80%
inhibition at 200 ppm [3]: ≥ 80%
pest or weed control at 200 ppm (Pyrenophora teres): ≥ 80%
inhibition at 200 ppm [4]: ≥ 80%
melting point: 219 to 220 °C
inhibition at 200 ppm [5]: ≥ 80%
pest or weed control at 200 ppm [7]: ≥ 80%

O=C1CCCc2nc(-c3cccc(Cc4ccccc4)n3)ncc21 [Compound 20]
inhibition at 200 ppm [8]: ≥ 80%
inhibition at 200 ppm [3]: ≥ 80%
inhibition at 200 ppm [4]: ≥ 80%
melting point: 69 to 75 °C
inhibition at 200 ppm (Gaeumannomyces graminis): ≥ 80%
inhibition at 200 ppm [5]: ≥ 80%

COc1ccc(OC)c(Cc2cccc(-c3ncc4c(n3)CCOC4)n2)c1 [Compound 22]
pest or weed control at 200 ppm [2]: ≥ 80%
inhibition at 200 ppm [8]: ≥ 80%
pest or weed control at 200 ppm (Pyrenophora teres): ≥ 80%
inhibition at 200 ppm [4]: ≥ 80%
melting point: 286 to 288 °C
inhibition at 200 ppm (Gaeumannomyces graminis): ≥ 80%
inhibition at 200 ppm [5]: ≥ 80%
pest or weed control at 200 ppm [6]: ≥ 80%
pest or weed control at 200 ppm [7]: ≥ 80%

COc1ccc(Cc2cccc(-c3ncc4c(n3)CCCCC4)n2)cc1 [Compound 35]
inhibition at 200 ppm [1]: ≥ 80%
pest or weed control at 200 ppm [2]: ≥ 80%
inhibition at 200 ppm [8]: ≥ 80%
inhibition at 200 ppm [3]: ≥ 80%
pest or weed control at 200 ppm (Pyrenophora teres): ≥ 80%
inhibition at 200 ppm [4]: ≥ 80%
inhibition at 200 ppm (Gaeumannomyces graminis): ≥ 80%
inhibition at 200 ppm [5]: ≥ 80%
pest or weed control at 200 ppm [6]: ≥ 80%
pest or weed control at 200 ppm [7]: ≥ 80%
inhibition at 200 ppm [9]: ≥ 80%

COc1ccc(Cc2cccc(-c3ncc4c(n3)CC(C)(C)CC4)n2)cc1 [Compound 37]
inhibition at 200 ppm [1]: ≥ 80%
pest or weed control at 200 ppm [2]: ≥ 80%
inhibition at 200 ppm [8]: ≥ 80%
inhibition at 200 ppm [3]: ≥ 80%
pest or weed control at 200 ppm (Pyrenophora teres): ≥ 80%
inhibition at 200 ppm [4]: ≥ 80%
inhibition at 200 ppm (Gaeumannomyces graminis): ≥ 80%
inhibition at 200 ppm [5]: ≥ 80%
pest or weed control at 200 ppm [6]: ≥ 80%
pest or weed control at 200 ppm [7]: ≥ 80%
inhibition at 200 ppm [9]: ≥ 80%

COc1ccc(Cc2cccc(-c3ncc4c(n3)CCCC4)n2)cn1 [Compound 41]
inhibition at 200 ppm [1]: ≥ 80%
pest or weed control at 200 ppm [2]: ≥ 80%
inhibition at 200 ppm [8]: ≥ 80%
inhibition at 200 ppm [3]: ≥ 80%
pest or weed control at 200 ppm (Pyrenophora teres): ≥ 80%
inhibition at 200 ppm [4]: ≥ 80%
inhibition at 200 ppm (Gaeumannomyces graminis): ≥ 80%
inhibition at 200 ppm [5]: ≥ 80%
pest or weed control at 200 ppm [6]: ≥ 80%
pest or weed control at 200 ppm [7]: ≥ 80%
inhibition at 200 ppm [9]: ≥ 80%

COc1ccc(Cc2cccc(-c3ncc4c(n3)CC(C)(C)CC4)n2)cn1 [Compound 42]
inhibition at 200 ppm [1]: ≥ 80%
pest or weed control at 200 ppm [2]: ≥ 80%
inhibition at 200 ppm [8]: ≥ 80%
inhibition at 200 ppm [3]: ≥ 80%
pest or weed control at 200 ppm (Pyrenophora teres): ≥ 80%
inhibition at 200 ppm [4]: ≥ 80%
inhibition at 200 ppm (Gaeumannomyces graminis): ≥ 80%
inhibition at 200 ppm [5]: ≥ 80%
pest or weed control at 200 ppm [6]: ≥ 80%
pest or weed control at 200 ppm [7]: ≥ 80%
inhibition at 200 ppm [9]: ≥ 80%

COc1ccc(C(C)c2cccc(-c3ncc4c(n3)CCCC4)n2)nc1 (centres unmarked) [Compound 44]
inhibition at 200 ppm [1]: ≥ 80%
pest or weed control at 200 ppm [2]: ≥ 80%
inhibition at 200 ppm [8]: ≥ 80%
inhibition at 200 ppm [3]: ≥ 80%
pest or weed control at 200 ppm (Pyrenophora teres): ≥ 80%
inhibition at 200 ppm [4]: ≥ 80%
inhibition at 200 ppm (Gaeumannomyces graminis): ≥ 80%
inhibition at 200 ppm [5]: ≥ 80%
pest or weed control at 200 ppm [6]: ≥ 80%
pest or weed control at 200 ppm [7]: ≥ 80%
inhibition at 200 ppm [9]: ≥ 80%

— patent US20130281467A1, “NOVEL MICROBICIDES” (SYNGENTA PARTICIPATIONS AG, priority 2010, published 2013)
